Reference: patent publication US9034398B2, “Traditional Chinese drug comprising Danshen extracts and Sanqi extracts and use thereof” (TASLY Pharmaceutical Group Co., LTD., priority 2009, dated 2015)

Key:
rat myocardial I/R model = assay: Heart blood flow volume by laser Doppler perfusion imaging (LDPI); format: in vivo; settings: for inhibitory effect on the decrease of the heart blood flow volume after I/R / heart blood flow volume regained compared to I/R group (LDPI images): 5 mg/kg BW/h intravenous drip; for inhibitory effect on the decrease of the heart blood flow volume after I/R: FIG. 5A; for heart blood flow volume regained compared to I/R group (LDPI images): at 30 min and 60 min after reperfusion, FIG. 4A
Experimental: The rats were anesthetized by intramuscularly injecting 20 wt % urethane (1.25 g/kg) and fixed in the supine position. Neck skin was incised and anterior cervical muscles were separated to expose the trachea. Tracheal intubation was performed. Another end of the intubation was attached to a Small Animal Ventilator (ALC-V8, Shanghai Aoteshai Biology Science and Technology Limited Company, Shanghai, China) so as to carry out pressure breathing under the following conditions: a respiratory ratio of 1:1, a respiratory frequency of 75 times/min and a tidal volume of 12 mL/kg. The rectal temperature, measured with YSI REF 401 (Yellow Spring, Ohio, USA), was maintained at 37 37.5° C. by using a thermal blanket. The chest was sterilized and opened at the intercostal space between 2nd 4th ribs near the left and right sternal border to expose the heart. The 3⁄8 curved needle threaded with 3-0 suture was used to pass through the site at 1 2 mm below the juncture of the pulmonary artery cone and the left atrial appendage. The suture was ligated. A polyethylene tubule was placed between the silk suture and myocardial tissue, the silk suture was […] to cause ischemia. Ligature was released 30 min later to establish an I/R model. Danshensu+I/R group (DLA+I/R group): a Danshensu aqueous solution (in normal saline, 1.25 mg/ml) was administrated at a dosage of 5 mg/kg BW/h by intravenous drip 20 min before the experiment and continued until the end of the entire experiment. Notoginsenoside R1+I/R group (R1+I/R group): a Notoginsenoside R1 aqueous solution (in normal saline, 1.25 mg/ml) was administrated at a dosage of 5 mg/kg BW/h by intravenous drip 20 min before the experiment and continued until the end of the entire experiment. Danshensu:R1(4:1)+I/R group (DR(4:1)+I/R group): an aqueous solution of Danshensu and Notoginsenoside R1 at a weight ratio of 4:1, dissolved in normal saline (1.25 mg/ml, namely, in the solution, the concentration of Danshensu is 1 mg/ml and the concentration of Notoginsenoside R1 is 0.25 mg/ml), was administrated at a dosage of 5 mg/kg BW/h (namely, in the total dosage, the dosage of Danshensu is 4 mg/kg BW/h and the dosage of Notoginsenoside R1 is 1 mg/kg BW/h) by intravenous drip 20 min before the experiment and continued until the end of the entire experiment. Danshensu:R1 (1:1)+I/R group (DR(1:1)+IR group): an aqueous solution of Danshensu and Notoginsenoside R1 at a weight ratio of 1:1, dissolved in normal saline (1.25 mg/ml, namely, in the solution, the concentration of Danshensu is 0.625 mg/ml and the concentration of Notoginsenoside R1 is 0.625 mg/ml), was administrated at a dosage of 5 mg/kg BW/h (namely, in the total dosage, the dosage of Danshensu is 2.5 mg/kg BW/h and the dosage of Notoginsenoside R1 is 2.5 mg/kg BW/h) by intravenous drip 20 min before the experiment and continued until the end of the entire experiment. […] Blood flow volumes on the surface of heart before ischemia, 5 min, 30 min after ischemia, and 5 min, 30 min, 60 min after reperfusion had been recorded by a computer-aided laser Doppler perfusion imager (LDPI) (PeriScan PIM3, […], Sweden). Images were measured and the data were evaluated with […] software. Change rate of blood flow volume of the heart was calculated by taking the blood flow volume before I/R as a baseline.

[1] = test system: rat's mesenteric venule walls; settings: prior researches; rat mesentery, I/R; cited from earlier work
rat's liver = settings: previous researches, cited from earlier work

SMILES	inhibitory effect on the decrease of the heart blood flow volume after I/R (rat myocardial I/R model; at 5 min after reperfusion)	heart blood flow volume regained compared to I/R group (LDPI images) (rat myocardial I/R model)	amelioration of heart perfusion flow caused by I/R (summary) (rat myocardial I/R model; rats, summary statement of the description)	adhesion between leucocytes and venule walls [1]	expression of leucocytes adhesion molecules CD11b/CD18 [1]	leakage of plasma albumin [1]	inhibitory effect on the decrease of the heart blood flow volume after I/R (rat myocardial I/R model; no time stated)	leukocytes adhered to rat's liver caused by I/R (rat's liver)	microcirculation disorder of the liver (rat's liver; rat, I/R)
O=C(O)C(O)Cc1ccc(O)c(O)c1 (stereo not shown) [Danshensu, (3,4-dihydroxyphenyl)lactic acid]	significantly inhibitory effect	regained to some extent	transiently ameliorate	potential for inhibiting	potential for inhibiting	potential for inhibiting	–	–	–
CC(C)=CCC[C@](C)(O[C@@H]1O[C@H](CO)[C@@H](O)[C@H](O)[C@H]1O)[C@H]1CC[C@]2(C)[C@@H]1[C@H](O)C[C@@H]1[C@@]3(C)CC[C@H](O)C(C)(C)[C@@H]3[C@@H](O[C@@H]3O[C@H](CO)[C@@H](O)[C@H](O)[C@H]3O[C@@H]3OC[C@@H](O)[C@H](O)[C@H]3O)C[C@]12C [Notoginsenoside R1]	–	regained to some extent	–	–	–	–	has not been observed to have significantly inhibitory effect	can reduce	can ameliorate
